Source: patent publication US20090209538A1, “THERAPEUTIC SUBSTITUTED LACTAMS” (ALLERGAN, INC., priority 2008, published 2009)
Entries after “also recorded” stand apart in the source; their conditions may differ.

Test system: patients having glaucoma (lashes and adjacent hairs)
Experiment: Clinical observation of lash and hair growth in glaucoma patients treated in one eye
Type: in vivo, humans
Settings: glaucoma patients treated unilaterally; treated versus control areas
Excerpt: In the course of treating patients having glaucoma, treatment may only be appropriate in one eye. […] The lash appearance on the lids of the treated eyes would have appeared quite attractive if it represented a bilateral phenomenon. As a result of its asymmetric nature, the long lashes on one side could be construed as disturbing from a cosmetic standpoint. A systemic examination was preformed as a result of the asymmetric phenomenon. It soon became apparent that this altered appearance was not an isolated finding. […] Definite differences could be identified to varying degrees in the lashes and adjacent hairs of all patients who were taking the drug on a unilateral basis for longer than 6 months.
The changes in the lashes were apparent on gross inspection in several patients once attention was focused on the issue. In those with light colored hair and lashes, the differences were only seen easily with the aid of the high magnification and lighting capabilities of the slit lamp biomicroscope. In the course of glaucoma follow-up examination, attention is generally immediately focused on the eye itself. As a result of the high power magnification needed only one eye is seen at a time and the eye is seen at a high enough power that the lashes are not in focus. […]

## CCNC(=O)CCC/C=C\C[C@@H]1[C@@H](/C=C/[C@@H](O)CCc2ccccc2)[C@H](O)C[C@@H]1O [bimatoprost]
  lash / hair growth in treated eye versus non-treated eye: longer, thicker, and fuller in the treated eye than in the non-treated eye; also recorded: hair growth is stimulated
